Source: patent publication US20180036234A1, “TREATMENT OF BONE FRACTURES AND DEFECTS” (Entera Bio Ltd., priority 2015, published 2018)
Several values for one entry are separate records, joined by “and”; a condition that tells them apart may be missing. Identical values can stand only once.

Experiments:
[1] = Dissolution test of tablets in simulated gastric buffer, released SNAC by HPLC; format: physicochemical; conditions: tablet with 100 mg sodium bicarbonate vs tablet without; simulated gastric buffer pH 2.0, 37° C.; FIG. 15
Procedure: The tablets were in a form of a homogeneous mixture.
Each tablet formulation was subjected to a dissolution test in 100 ml of simulated gastric buffer (without pepsin), pH 2.0, at 37° C., according to USP 23 Apparatus 2 (paddle) with 50 rotations per minute. The amount of released SNAC in each sample was determined chromatographically, using an HPLC apparatus with Cosmosil™ 5 C18-MS-II (4.6 ID×250 mm) column. Mobile phase consisted of 50% acetonitrile and 50% phosphoric acid solution (0.1%). Flow rate was 1 ml/minute and injection volume was 25 μl. Amount of released SNAC was calculated as a percentage of the amount of SNAC in the formulation.

[2] = Pharmacokinetic study of oral teriparatide tablet (0.75 mg) in healthy volunteers; format: in vivo, human
Procedure: An open label comparative pharmacokinetic study was performed in healthy volunteers over the course of 3 months. Each volunteer received—in each of two visits—the same oral tablet containing 0.75 mg of teriparatide, a recombinant form of parathyroid hormone (1-34).
(§1) The formulation was composed of teriparatide (0.75 mg), SNAC (sodium 8-N-(2-hydroxybenzoyl) aminocaprylate), soybean trypsin inhibitor (SBTI) and a small amount of magnesium stearate.
Tablets were administered in the morning after an 8-hour overnight fast and immediately followed by 150 ml of water. At each visit a standard meal was provided 3 hours after drug administration. […] There was a two weeks period between the visits.
(§2) To determine parathyroid hormone(1-34) (PTH(1-34)) concentrations, blood samples (4 ml each) were drawn via an indwelling catheter from the forearm vein at predetermined time points during each visit. The cannula was flushed with 1.5 ml normal saline after each sampling. In addition, to avoid sample dilution, 1 ml of blood was drawn and discarded before the next sample. The blood samples were taken at following times: baseline (predose), 10 minutes, 15 minutes, 20 minutes, 30 minutes, 45 minutes, 60 minutes, 75 minutes, 90 minutes, 105 minutes, 2 hours, 3 hours, 4 hours and 5 hours post-administration. Each blood sample was collected into a single tube containing EDTA (ethylenediaminetetraacetic acid) and placed on ice. Within 15 minutes of blood collection, samples were centrifuged for 10 minutes at 4° C. (2500 rotations per minute) and the plasma was separated and divided into two or three aliquots. Each aliquot was transferred into appropriately labeled polypropylene tubes and stored at approximately −20° C. pending analysis. PTH(1-34) levels were measured using an IDS-iSYS automated assay for the measurement of intact PTH(1-34) in human plasma or serum.

[3] = Phase I clinical study of oral teriparatide formulations, plasma PTH(1-34) versus subcutaneous injection; format: in vivo, human
Procedure: A Phase I clinical study of exemplary oral formulations comprising teriparatide (parathyroid hormone (1-34)) was conducted at the Hadassah Clinical Research Center. 42 healthy volunteers were included throughout the study.
The formulation was composed of teriparatide (200, 400, 680, 1400 or 1800 μg), SNAC (sodium 8-N-(2-hydroxybenzoyl) aminocaprylate), soybean trypsin inhibitor and magnesium stearate.
Tablets were administered in the morning after an 8-hour overnight fast and immediately followed by 150 ml of water. At each visit a standard meal was provided 3 hours after drug administration.
as §2, with “hormone” for “hormone(1-34) (PTH(1-34))”, “points.” for “points during each visit.”, “(predose),” for “(predose), 10 minutes,”, “15” for “15 minutes, 20”
Oral administration of teriparatide was performed as described hereinabove at doses of 200, 400, 680, 1400 or 1800 μg. The Cmax of PTH(1-34) for each orally administered dose was compared with the Cmax of PTH(1-34) for subcutaneous injection of 20 μg teriparatide.

cAMP = test: Plasma cAMP levels after oral or subcutaneous teriparatide; format: in vivo, human; conditions: FIG. 4
Procedure: In addition, plasma levels of cAMP, a known marker of PTH activity, were determined in order to confirm biological activity of administered PTH. cAMP plasma levels were measured following oral administration of 680 μg teriparatide or subcutaneous injection of 20 μg teriparatide, as described hereinabove.

[4] = Pharmacokinetic study of oral teriparatide tablet co-administered with water or sodium bicarbonate solution; format: in vivo, human; conditions: oral tablet 0.75 mg teriparatide with 150 ml of 3 mg/ml sodium bicarbonate solution, in comparison with 150 ml water; FIG. 16
Procedure: An open label comparative pharmacokinetic study was performed on ten healthy volunteers. On different visits, each volunteer received the same oral tablet containing 0.75 mg of teriparatide, a recombinant form of parathyroid hormone (1-34) (PTH(1-34)). In the first visit, the tablet was administered with 150 ml water, whereas in the second visit the tablet was administered with 150 ml of 3 mg/ml sodium bicarbonate aqueous solution.
as §1
Tablets were administered in the morning after an 8-hour overnight fast. At each visit a standard meal was provided 3 hours after drug administration. […] There was a two week period between the two visits.
To determine PTH(1-34) concentrations, blood samples were drawn and PTH(1-34) levels were measured using an IDS-iSYS automated assay, using procedures described in Example 1 hereinabove. Relative absorption was determined based on the AUC (area under curve) parameter.

[5] = oral tablet 0.75 mg teriparatide with SNAC, SBTI, magnesium stearate, fasted healthy volunteers, plasma PTH(1-34), per subject (A, B, C)
[6] = oral tablet 0.75 mg teriparatide with SNAC, SBTI, magnesium stearate, second visit two weeks later, per subject (A, B, C)

Compound: O=C(O)CCCCCCCNC(=O)c1ccccc1O [SNAC, sodium 8-N-(2-hydroxybenzoyl)aminocaprylate]
- dissolution of SNAC in tablets [1]: considerably enhanced
- soluble fraction of SNAC [1]: preserved

Compound: CC[C@H](C)[C@H](NC(=O)[C@H](CCC(=O)O)NC(=O)[C@H](CO)NC(=O)[C@@H](NC(=O)[C@@H](N)CO)C(C)C)C(=O)N[C@@H](CCC(N)=O)C(=O)N[C@@H](CC(C)C)C(=O)N[C@@H](CCSC)C(=O)N[C@@H](Cc1cnc[nH]1)C(=O)N[C@@H](CC(N)=O)C(=O)N[C@@H](CC(C)C)C(=O)NCC(=O)N[C@@H](CCCCN)C(=O)N[C@@H](Cc1cnc[nH]1)C(=O)N[C@@H](CC(C)C)C(=O)N[C@@H](CC(N)=O)C(=O)N[C@@H](CO)C(=O)N[C@@H](CCSC)C(=O)N[C@@H](CCC(=O)O)C(=O)N[C@@H](CCCN=C(N)N)C(=O)N[C@H](C(=O)N[C@@H](CCC(=O)O)C(=O)N[C@@H](Cc1c[nH]c2ccccc12)C(=O)N[C@@H](CC(C)C)C(=O)N[C@@H](CCCN=C(N)N)C(=O)N[C@@H](CCCCN)C(=O)N[C@@H](CCCCN)C(=O)N[C@@H](CC(C)C)C(=O)N[C@@H](CCC(N)=O)C(=O)N[C@@H](CC(=O)O)C(=O)N[C@H](C(=O)N[C@@H](Cc1cnc[nH]1)C(=O)N[C@@H](CC(N)=O)C(=O)N[C@@H](Cc1ccccc1)C(=O)O)C(C)C)C(C)C [teriparatide]
- time for plasma levels to return to baseline levels after tablet administration ([2]; oral tablet 0.75 mg teriparatide with SNAC and SBTI, plasma): ≤ 60 min
- Cmax after 1st administration [2, 5]: 35 picogram/ml
- Tmax after 1st administration [2, 5]: 10 min and 15 min
- Cmax after 2nd administration [2, 6]: 36 picogram/ml
- Tmax after 2nd administration [2, 6]: 20 min
- decline of PTH levels following oral administration compared with subcutaneous administration ([3]; oral 1800 μg vs subcutaneous 20 μg teriparatide, FIG. 3): declined considerably more rapidly
- Cmax of PTH(1-34) following oral administration, relation to dose ([3]; oral tablets 200, 400, 680, 1400 or 1800 μg teriparatide with SNAC and SBTI, FIG. 2): proportional to the dose
- oral dose providing a Cmax equivalent to that of subcutaneous administration of 20 μg teriparatide ([3]; oral tablets with SNAC and SBTI, FIG. 2): roughly 750 μg
- plasma cAMP levels (cAMP; oral administration of 680 μg teriparatide (compared with subcutaneous 20 μg)): increased plasma cAMP levels to a similar degree
- plasma cAMP levels (cAMP; subcutaneous administration of 20 μg teriparatide (compared with oral 680 μg)): increased plasma cAMP levels to a similar degree
- increase in absorption of PTH(1-34) (based on AUC) [4]: about 35%
